This passage reports IC50 and in vivo half-life results from PMC5324734, “DOTA-Derivatives of Octreotide Dicarba-Analogs with High Affinity for Somatostatin sst2,5 Receptors” (Frontiers in Chemistry, 2017).

“And” between values parts separate entries of the source, which are not always exact repeats. Equal entries are not always repeated. Where two headings read alike, the source gives them in different places. Where a SMILES comes first, the peptide text is derived from it. Bridges are numbered along the chain shown (N, C = ends). [ ]: non-standard residue; d: D form. The star is where a group is joined. DOTA = O=C(O)CN1CCN(CC(=O)O)CCN(CC(=O)*)CCN(CC(=O)O)CC1; 1Nal = N[C@@H](Cc1cccc2ccccc12)C(=O)O; Thr(ol) = C[C@@H](O)[C@H](N)CO; AllylGly = C=CC[C@H](N)C(=O)O; Bn = c1ccc(C*)cc1 Bounds are passed on as bounds.

Data set [1] has as its target T1, sst2 receptor (Homo sapiens, UniProt P30874).
T1 construct: Cell membrane pellets were prepared from human sst2-expressing endogeneous IMR32 cells; host or cells: IMR32 cells (membrane pellets)
Further details: method as in Di Cianni et al., 2010. The settings on record: free (unconjugated) dicarba-analogs; mean ± SEM; data published previously; ref Di Cianni et al., 2010; cited from earlier work.

The target of data set [2] is T2, sst5 receptor (Homo sapiens, UniProt P35346).
T2 construct: host or cells: CHO cells (membrane pellets)
Details: method as in Di Cianni et al., 2010. The settings on record: free (unconjugated) dicarba-analogs; mean ± SEM; data published previously; ref Di Cianni et al., 2010; cited from earlier work.

The target of data set [3] is T2, sst5 receptor. As to the kind of experiment: Somatostatin receptor affinity, displacement of 125I-[LTT]-SRIF-28 (sst5). The data set is classed as binding. The conditions noted are these: complete displacement of [Leu8,D-Trp22,125I-Tyr25]-SRIF-28; cell membrane pellets from sst5-expressing human CHO cells; CEREP; mean ± SEM of three independent repetitions. The procedure: (§1) Determination of Somatostatin receptors affinity was performed at CEREP (Le Bois l'Evêque, B. P. 3,001, 86,600 Celle l'Evescault, France). Cell membrane pellets were prepared from human sst2-expressing endogeneous IMR32 cells, and sst5-expressing human CHO cells. For each of the tested compounds, complete displacement experiments with the universal SRIF radio-ligand [Leu^8, D-Trp^22, ^125I-Tyr^25]-SRIF-28 (125I-[LTT]-SRIF-28) (2000 Ci/mmol; Anawa, Wangen, Switzerland) were performed. As control, unlabeled seglitide and SRIF-14 were run in parallel, using the same increasing concentrations, with sst2 and sst5 subtypes, respectively. IC50 values were calculated by non-linear regression analysis of the competition curves generated with mean replicate values using Hill equation curve. The analysis was performed using software developed at CEREP (Hill software) and validated by comparison with data generated by the commercial software SigmaPlot 4.0 for Windows.
(§2) The three DOTA conjugated compounds 3b, 4b, and 5b were tested for their ability to bind to the sst2 and sst5 receptors subtypes in complete displacement experiments using the universal somatostatin radioligand [^125I]-[Leu^8,D-Trp^22,Tyr^25]-somatostatin-28. IC50 values were calculated after quantification of the data using a computer-assisted image processing system (Table 1). Receptor subtypes sst2 and sst5 were chosen for preliminary binding assays because of their overexpression in some tumor types (Miller et al., [1995]). In Table 1, the affinities of the parent unconjugated compounds 3a, 4a, and 5a are also reported for comparison (Di Cianni et al., [2010]).

The target of data set [4] is T1, sst2 receptor. In words: Somatostatin receptor affinity, displacement of 125I-[LTT]-SRIF-28 (sst2). The data set is classed as binding. The settings on record: complete displacement of [Leu8,D-Trp22,125I-Tyr25]-SRIF-28; cell membrane pellets from human sst2-expressing endogeneous IMR32 cells; CEREP; mean ± SEM of three independent repetitions. The method, then:
as §1, §2

For data set [5] the following is noted: native hormone; ref Weckbecker et al., 2003; cited from earlier work. The text has this: Radiolabeled peptides, targeting specific receptors of malignant cells, in primis GPCRs, have emerged in the past years as one of the most promising tools for diagnosis and therapy of several kinds of metastatic tumors which express these receptors (Ramogida and Orvig, [2013]). Somatostatins SRIF-14 and SRIF-28 are peptide hormones, which have a wide range of pharmacological actions on exocrine and endocrine secretions (Brazeau et al., [1973]) mediated by direct interaction with at least five GPCRs. Chemically, they are -S-S- bridged cyclic peptides containing 14 and 28 amino acids, respective ...

T2 sequence (P35346 whole entry): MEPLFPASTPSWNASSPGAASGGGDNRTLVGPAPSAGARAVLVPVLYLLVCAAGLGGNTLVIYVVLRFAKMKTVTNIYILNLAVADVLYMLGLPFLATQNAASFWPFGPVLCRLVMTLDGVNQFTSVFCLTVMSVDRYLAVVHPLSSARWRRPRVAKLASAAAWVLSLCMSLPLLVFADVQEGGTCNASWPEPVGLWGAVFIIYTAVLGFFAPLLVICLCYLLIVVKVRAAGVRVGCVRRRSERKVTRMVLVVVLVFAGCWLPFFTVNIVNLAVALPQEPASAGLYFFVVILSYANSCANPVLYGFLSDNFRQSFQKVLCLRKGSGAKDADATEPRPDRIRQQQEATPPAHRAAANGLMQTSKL
T1 sequence (P30874 whole entry): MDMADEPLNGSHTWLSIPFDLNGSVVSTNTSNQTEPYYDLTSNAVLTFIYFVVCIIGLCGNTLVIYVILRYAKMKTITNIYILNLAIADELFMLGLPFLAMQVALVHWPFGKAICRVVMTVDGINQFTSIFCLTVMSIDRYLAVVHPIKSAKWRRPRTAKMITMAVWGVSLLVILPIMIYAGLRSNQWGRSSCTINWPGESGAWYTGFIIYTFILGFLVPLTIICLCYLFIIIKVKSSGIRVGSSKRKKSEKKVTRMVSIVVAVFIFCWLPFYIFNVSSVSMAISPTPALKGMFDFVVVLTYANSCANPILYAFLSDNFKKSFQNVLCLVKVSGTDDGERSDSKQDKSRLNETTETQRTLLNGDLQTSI

By IC50 is commonly meant the midpoint of a concentration-inhibition curve. Turning to `C[C@@H](O)[C@@H]1NC(=O)[C@H](CCCCN)NC(=O)[C@@H](Cc2c[nH]c3ccccc23)NC(=O)[C@H](Cc2cccc3ccccc23)NC(=O)[C@@H](NC(=O)[C@H](N)Cc2ccccc2)C/C=C\C[C@@H](C(=O)N[C@H](CO)[C@@H](C)O)NC1=O` [Compound 3a] (H-[dF][AllylGly][1Nal][dW]KT[AllylGly][Thr(ol)]; staple (Z) 2-7), the IC50 was 9.6 ± 0.9 nM in data set [1] and 16.5 ± 4.5 nM in data set [2]. In the case of `C[C@@H](O)[C@@H]1NC(=O)[C@H](CCCCN)NC(=O)[C@@H](Cc2c[nH]c3ccccc23)NC(=O)[C@H](Cc2cccc3ccccc23)NC(=O)[C@@H](NC(=O)[C@@H](Cc2ccccc2)NC(=O)CN2CCN(CC(=O)O)CCN(CC(=O)O)CCN(CC(=O)O)CC2)C/C=C\C[C@@H](C(=O)N[C@H](CO)[C@@H](C)O)NC1=O` [Compound 3b] ({DOTA}-[dF][AllylGly][1Nal][dW]KT[AllylGly][Thr(ol)]; staple (Z) 2-7), the results for the IC50 in data set [3] and in data set [4] were 130 ± 7 nM and 61 ± 5.4 nM, respectively.

Turning to `C[C@@H](O)[C@@H](CO)NC(=O)[C@@H]1C/C=C\C[C@H](NC(=O)[C@H](N)Cc2ccccc2)C(=O)N[C@@H](Cc2ccccc2)C(=O)N[C@H](Cc2c[nH]c3ccccc23)C(=O)N[C@@H](CCCCN)C(=O)N[C@@H](Cc2ccc(OCc3ccccc3)cc2)C(=O)N1` [Compound 4a] (H-[dF][AllylGly]F[dW]KY(Bn)[AllylGly][Thr(ol)]; staple (Z) 2-7), the IC50 in data set [1] was 46 ± 3 nM; in data set [2] it was 12.3 ± 0.3 nM. Consider `C[C@@H](O)[C@@H](CO)NC(=O)[C@@H]1C/C=C\C[C@H](NC(=O)[C@@H](Cc2ccccc2)NC(=O)CN2CCN(CC(=O)O)CCN(CC(=O)O)CCN(CC(=O)O)CC2)C(=O)N[C@@H](Cc2ccccc2)C(=O)N[C@H](Cc2c[nH]c3ccccc23)C(=O)N[C@@H](CCCCN)C(=O)N[C@@H](Cc2ccc(OCc3ccccc3)cc2)C(=O)N1` [Compound 4b] ({DOTA}-[dF][AllylGly]F[dW]KY(Bn)[AllylGly][Thr(ol)]; staple (Z) 2-7), for which the IC50 in data set [3] was 91 ± 7.8 nM; in data set [4] it was above 300 nM.

Regarding `C[C@@H](O)[C@@H](CO)NC(=O)[C@@H]1C/C=C\C[C@H](NC(=O)[C@H](N)Cc2ccccc2)C(=O)N[C@@H](Cc2cccc3ccccc23)C(=O)N[C@H](Cc2c[nH]c3ccccc23)C(=O)N[C@@H](CCCCN)C(=O)N[C@@H](Cc2ccc(OCc3ccccc3)cc2)C(=O)N1` [Compound 5a] (H-[dF][AllylGly][1Nal][dW]KY(Bn)[AllylGly][Thr(ol)]; staple (Z) 2-7), the figures for the IC50 in data set [1] and in data set [2] were 101 ± 9 nM and 4.9 ± 1 nM, respectively. Take `C[C@@H](O)[C@@H](CO)NC(=O)[C@@H]1C/C=C\C[C@H](NC(=O)[C@@H](Cc2ccccc2)NC(=O)CN2CCN(CC(=O)O)CCN(CC(=O)O)CCN(CC(=O)O)CC2)C(=O)N[C@@H](Cc2cccc3ccccc23)C(=O)N[C@H](Cc2c[nH]c3ccccc23)C(=O)N[C@@H](CCCCN)C(=O)N[C@@H](Cc2ccc(OCc3ccccc3)cc2)C(=O)N1` [Compound 5b] ({DOTA}-[dF][AllylGly][1Nal][dW]KY(Bn)[AllylGly][Thr(ol)]; staple (Z) 2-7): the IC50 was 12 ± 2.6 nM in data set [3]; > 100 nM and 160 nM in data set [4].

“SRIF-14: native somatostatin peptide hormone, -S-S- bridged cyclic peptide containing 14 amino acids”: the in vivo half-life in data set [5] is on record as below 3 min.
